US12077503B2, “Substituted cyclic amides and their use as herbicides” (FMC CORPORATION, priority 2015, dated 2024)
Like-named read-outs stand apart in the source and are kept apart here.

How the values were obtained:
Assay type in all cases: in vivo
Kochia (Kochia scoparia) [1] = experiment: Test A preemergence; settings: Bassia scoparia, pre-emergence, 240 h; for pest or weed control at 125 g/ha: 125 g ai/ha, Preemergence, visual injury rating after approximately 10 d, read-out: Kochia plant response rating (0 to 100 scale, 0 is no effect, 100 is complete control); for pest or weed control at 500 g/ha: 500 g ai/ha, preemergence, visual injury rating about 10 d after treatment, 0 to 100 scale (0 no effect, 100 complete control), read-out: Kochia plant response rating
In short: (§1)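 Seeded soil received test chemicals as a preemergence directed spray, and seedlings at one to two leaves, 2–10 cm tall, received them postemergence, in a non-phytotoxic, surfactant-containing solvent mixture. Pots were held in a greenhouse for approximately 10 d, then rated for injury from 0, no effect, to 100, complete control.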

[2] = system: barnyardgrass (Echinochloa crus-galli); experiment: Test A preemergence; settings: Echinochloa crus-galli, pre-emergence, 240 h; for pest or weed control at 125 g/ha: 125 g ai/ha, Preemergence, visual injury rating after approximately 10 d, read-out: Barnyardgrass plant response rating (0 to 100 scale, 0 is no effect, 100 is complete control); for pest or weed control at 500 g/ha: 500 g ai/ha, preemergence, visual injury rating about 10 d after treatment, 0 to 100 scale (0 no effect, 100 complete control), read-out: Barnyardgrass plant response rating
In short: as §1

[3] = system: giant foxtail (Setaria faberii); experiment: Test A preemergence; settings: Setaria faberi, pre-emergence, 240 h; for pest or weed control at 125 g/ha: 125 g ai/ha, Preemergence, visual injury rating after approximately 10 d, read-out: Foxtail, Giant plant response rating (0 to 100 scale, 0 is no effect, 100 is complete control); for pest or weed control at 500 g/ha: 500 g ai/ha, preemergence, visual injury rating about 10 d after treatment, 0 to 100 scale (0 no effect, 100 complete control), read-out: Foxtail, Giant plant response rating
In short: as §1

[4] = system: pigweed (Amaranthus retroflexus); experiment: Test A preemergence; settings: Amaranthus retroflexus, pre-emergence, 240 h; for pest or weed control at 125 g/ha: 125 g ai/ha, Preemergence, visual injury rating after approximately 10 d, read-out: Pigweed plant response rating (0 to 100 scale, 0 is no effect, 100 is complete control); for pest or weed control at 500 g/ha: 500 g ai/ha, preemergence, visual injury rating about 10 d after treatment, 0 to 100 scale (0 no effect, 100 complete control), read-out: Pigweed plant response rating
[5] = system: ragweed (common ragweed, Ambrosia elatior); experiment: Test A preemergence; settings: Ambrosia artemisiifolia, pre-emergence, 240 h; for pest or weed control at 500 g/ha: 500 g ai/ha, preemergence, visual injury rating about 10 d after treatment, 0 to 100 scale (0 no effect, 100 complete control), read-out: Ragweed plant response rating
In short: as §1

[6] = system: ryegrass, Italian (Italian ryegrass, Lolium multiflorum); experiment: Test A preemergence; settings: Lolium multiflorum, pre-emergence, 240 h; for pest or weed control at 125 g/ha: 125 g ai/ha, Preemergence, visual injury rating after approximately 10 d, read-out: Ryegrass, Italian plant response rating (0 to 100 scale, 0 is no effect, 100 is complete control); for pest or weed control at 500 g/ha: 500 g ai/ha, preemergence, visual injury rating about 10 d after treatment, 0 to 100 scale (0 no effect, 100 complete control), read-out: Ryegrass, Italian plant response rating
In short: as §1

Kochia (Kochia scoparia) [7] = experiment: Test A postemergence; settings: Bassia scoparia, post-emergence, 240 h, 125 g ai/ha, Postemergence; visual injury after approximately 10 d; 0 to 100 scale where 0 is no effect and 100 is complete control; read-out: Plant response rating, Kochia
In short: as §1

[8] = system: blackgrass (Alopecurus myosuroides); experiment: Test A postemergence; settings: Alopecurus myosuroides, post-emergence, 240 h, 125 g ai/ha, Postemergence; visual injury after approximately 10 d; 0 to 100 scale where 0 is no effect and 100 is complete control; read-out: Plant response rating, Blackgrass
In short: as §1

corn (Zea mays) = experiment: Test A postemergence; settings: Zea mays, post-emergence, 240 h, 125 g ai/ha, Postemergence; visual injury after approximately 10 d; 0 to 100 scale where 0 is no effect and 100 is complete control
In short: as §1

[9] = system: giant foxtail (Setaria faberii); experiment: Test A postemergence; settings: Setaria faberi, post-emergence, 240 h, 125 g ai/ha, Postemergence; visual injury after approximately 10 d; 0 to 100 scale where 0 is no effect and 100 is complete control; read-out: Plant response rating, Foxtail, Giant
In short: as §1

[10] = system: pigweed (Amaranthus retroflexus); experiment: Test A postemergence; settings: Amaranthus retroflexus, post-emergence, 240 h, 125 g ai/ha, Postemergence; visual injury after approximately 10 d; 0 to 100 scale where 0 is no effect and 100 is complete control; read-out: Plant response rating, Pigweed
In short: as §1

[11] = system: ragweed (common ragweed, Ambrosia elatior); experiment: Test A postemergence; settings: Ambrosia artemisiifolia, post-emergence, 240 h, 125 g ai/ha, Postemergence; visual injury after approximately 10 d; 0 to 100 scale where 0 is no effect and 100 is complete control; read-out: Plant response rating, Ragweed
In short: as §1

[12] = system: ryegrass, Italian (Italian ryegrass, Lolium multiflorum); experiment: Test A postemergence; settings: Lolium multiflorum, post-emergence, 240 h, 125 g ai/ha, Postemergence; visual injury after approximately 10 d; 0 to 100 scale where 0 is no effect and 100 is complete control; read-out: Plant response rating, Ryegrass, Italian
In short: as §1

[13] = system: wheat (Triticum aestivum); experiment: Test A postemergence; settings: Triticum aestivum, post-emergence, 240 h, 125 g ai/ha, Postemergence; visual injury after approximately 10 d; 0 to 100 scale where 0 is no effect and 100 is complete control; read-out: Plant response rating, Wheat
In short: as §1

[14] = system: barnyardgrass (Echinochloa crus-galli); experiment: Test B flooded paddy test; settings: Echinochloa crus-galli, Flood, 250 g ai/ha; scale of 0 to 100 where 0 is no effect and 100 is complete control; read-out: Barnyardgrass plant response rating
In short: (§2)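 Greenhouse paddy pots with 2-leaf stage plants received compound by direct addition to floodwater 3 cm deep, kept at that level. Scored visually at 13–15 d versus controls (0 no effect; 100 complete control).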

[15] = system: ducksalad (Heteranthera limosa); experiment: Test B flooded paddy test; settings: Heteranthera limosa, Flood, 250 g ai/ha; scale of 0 to 100 where 0 is no effect and 100 is complete control; read-out: Ducksalad plant response rating
In short: as §2

rice (Oryra sativa) = experiment: Test B flooded paddy test; settings: Oryza sativa, Flood, 250 g ai/ha; scale of 0 to 100 where 0 is no effect and 100 is complete control; read-out: Rice plant response rating
In short: as §2

[16] = system: sedge, umbrella (small-flower umbrella sedge, Cyperus difformis); experiment: Test B flooded paddy test; settings: Cyperus difformis, Flood, 250 g ai/ha, read-out: Sedge, Umbrella plant response rating
In short: as §2

[17] = system: Galium (catchweed bedstraw, Galium aparine); experiment: Test A postemergence; settings: Galium, post-emergence, 240 h, 125 g ai/ha, Postemergence; visual injury after approximately 10 d; 0 to 100 scale where 0 is no effect and 100 is complete control; read-out: Plant response rating, Galium
In short: as §1

[18] = system: barnyardgrass (Echinochloa crus-galli); experiment: Test A postemergence; settings: Echinochloa crus-galli, post-emergence, 240 h, 125 g ai/ha, Postemergence; visual injury after approximately 10 d; 0 to 100 scale where 0 is no effect and 100 is complete control; read-out: Plant response rating, Barnyardgrass
In short: as §1

Cc1ccc([C@H]2CN(C)C(=O)[C@@H]2C(=O)Nc2cccc(F)c2C)cc1F [Compound 982]
pest or weed control at 125 g/ha (Kochia (Kochia scoparia) [1]): 50% | pest or weed control at 500 g/ha (Kochia (Kochia scoparia) [1]): 90% | pest or weed control at 125 g/ha [2]: 90% | pest or weed control at 500 g/ha [2]: 90% | pest or weed control at 125 g/ha [3]: 90% | pest or weed control at 500 g/ha [3]: 100% | pest or weed control at 125 g/ha [4]: 0% | pest or weed control at 500 g/ha [4]: 50% | pest or weed control at 500 g/ha [5]: 80% | pest or weed control at 125 g/ha [6]: 90% | pest or weed control at 500 g/ha [6]: 90% | pest or weed control at 125 g/ha (Kochia (Kochia scoparia) [7]): 50% | pest or weed control at 125 g/ha [8]: 70% | Corn plant response rating (crop injury, 0 = no effect, 100 = complete kill) at 125 g/ha (corn (Zea mays)): 60% | pest or weed control at 125 g/ha [9]: 90% | pest or weed control at 125 g/ha [10]: 0% | pest or weed control at 125 g/ha [11]: 20% | pest or weed control at 125 g/ha [12]: 60% | plant injury at 125 g/ha [13]: 70% | pest or weed control at 250 g/ha [14]: 75% | pest or weed control at 250 g/ha [15]: 100% | pest or weed control at 250 g/ha (rice (Oryra sativa)): 20% | pest or weed control at 250 g/ha ([16]; scale of 0 to 100 where 0 is no effect and 100 is complete control): 0%

CC(=O)Oc1ccc(NC(=O)[C@H]2C(=O)N(C)C[C@@H]2c2cc(F)cc(F)c2)c(F)c1 [Compound 996]
pest or weed control at 125 g/ha (Kochia (Kochia scoparia) [1]): 0% | pest or weed control at 500 g/ha (Kochia (Kochia scoparia) [1]): 0% | pest or weed control at 125 g/ha [2]: 0% | pest or weed control at 500 g/ha [2]: 0% | pest or weed control at 125 g/ha [3]: 0% | pest or weed control at 500 g/ha [3]: 0% | pest or weed control at 125 g/ha [4]: 0% | pest or weed control at 500 g/ha [4]: 0% | pest or weed control at 125 g/ha ([5]; 125 g ai/ha, Preemergence, visual injury rating after approximately 10 d, read-out: Ragweed plant response rating (0 to 100 scale, 0 is no effect, 100 is complete control)): 0% | pest or weed control at 500 g/ha [5]: 0% | pest or weed control at 125 g/ha [6]: 0% | pest or weed control at 500 g/ha [6]: 0% | pest or weed control at 125 g/ha [17]: 0% | pest or weed control at 125 g/ha [18]: 0% | pest or weed control at 125 g/ha [8]: 0% | Corn plant response rating (crop injury, 0 = no effect, 100 = complete kill) at 125 g/ha (corn (Zea mays)): 0% | pest or weed control at 125 g/ha [9]: 0% | pest or weed control at 125 g/ha [10]: 0% | pest or weed control at 125 g/ha [11]: 0% | pest or weed control at 125 g/ha [12]: 0% | plant injury at 125 g/ha [13]: 0% | pest or weed control at 250 g/ha [14]: 0% | pest or weed control at 250 g/ha [15]: 70% | pest or weed control at 250 g/ha (rice (Oryra sativa)): 0% | pest or weed control at 250 g/ha ([16]; 0 to 100 scale where 0 is no effect and 100 is complete control): 0%
